Activity calls are given as the source filed them. The rule behind the calls is not given here.

Drawing on ChEMBL document CHEMBL5046276 (J Med Chem, 2022), this text covers half-life, IC50 and Activity for 1 compound.

Series [1] can be described thus: Metabolic stability in rat liver microsomes assessed as half life at […] incubated for 45 mins in presence of NADPH by LC/MS analysis. It is filed as ADME, Microsome.
Another series addresses T1, Histone deacetylase 8 (Homo sapiens, UniProt Q9BY41).
T1 sequence (Q9BY41 whole entry): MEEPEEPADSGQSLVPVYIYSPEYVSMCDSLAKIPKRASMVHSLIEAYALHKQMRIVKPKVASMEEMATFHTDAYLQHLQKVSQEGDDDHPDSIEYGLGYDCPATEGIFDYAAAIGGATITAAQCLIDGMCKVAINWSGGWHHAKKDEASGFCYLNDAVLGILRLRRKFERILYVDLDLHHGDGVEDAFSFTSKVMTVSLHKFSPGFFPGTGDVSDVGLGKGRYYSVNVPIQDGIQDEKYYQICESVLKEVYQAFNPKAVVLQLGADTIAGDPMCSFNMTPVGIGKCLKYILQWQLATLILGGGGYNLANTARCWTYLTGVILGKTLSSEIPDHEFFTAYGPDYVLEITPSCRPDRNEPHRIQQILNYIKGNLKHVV
Description: Inhibition of recombinant human full length C-terminal His-tagged HDAC8 expressed in baculovirus-infected Sf9 insect cells using Ac-peptide as substrate incubated for 4 hrs followed by trypsin addition and further incubated for 2 hrs.

A further series has as its system Plasmodium falciparum. In words: Antimalarial activity against ART-resistant Plasmodium falcipuram 6218 harbouring C580Y mutant infected in human RBC assessed as reduction in parasitemia in blood smear by measuring parasite survival ratio at ring stage at upto 700 nM incubated for 6 hrs followed by compound washout and replacement with fresh medium without compounds and measured after 66 hrs by ring stage survival assay. It is filed as functional. The note with it: dose nM <=700, time 6.0 hrs.

For the compound `Cl.Cn1cc(CN2CC3(CCN(c4ncc(C(=O)NO)cn4)C3)C2)c2ccc(C#N)cc21`, the half-life in series [1] is more than 2 h. For the same compound, the IC50 on Histone deacetylase 8 stood at 29.9 nM. Further, in the series with Plasmodium falciparum, the result was Active.

What is called half-life is how long it takes for the measured level to halve. As usually defined, the IC50 is the point on the concentration scale where inhibition reaches its midpoint.
